According to article PMC10613275 (Scientific Reports, 2023):
Like-named read-outs stand apart in the source and are kept apart here. Marks after values point to notes of the source that are not given here.

Key:
[1] = system: CHO-K1 cells (hprt gene); experiment: CHO/HPRT mutation assay; assay type: cell-based, Chinese hamster; conditions: 3MC 2 µg/ml
[2] = system: CHO-K1 cells (hprt gene); experiment: CHO/HPRT mutation assay; assay type: cell-based, Chinese hamster; conditions: Table 4, With S9; lilial 500 µM, 3MC 2 µg/ml
Procedure: The test with metabolic activation was performed as described in the OECD protocol, the ASTM standard[23] and other protocols[30],[31] and publications. For the test, cryopreserved CHO-K1 cells after the mutant cleansing were used. Mutant cleansing was performed according to[30], i.e. cells were cultivated three days in HAT medium, one day in HT medium and then frozen.
One passage after the thawing, 1 × 10^6 cells were seeded in 60 mm cultivation plates as described in[32]. […] The final concentration of the solvent, DMSO, was 1%. […] EMS at final concentration 2 mM as recommended in[31] served as a positive control. 3-MC at final concentration […][22] served as a positive control for metabolic activation. 1% DMSO was used as a VC. Sole cultivation medium served as a negative control (NC). After 4 h, the medium with tested substances was removed, plates were washed with PBS and fresh medium with 10% FBS was added.
During the expression period (1 week), the cells on all 60 mm plates were passaged once. On day 8, cells were trypsinized, resuspended, counted and 2 × 10^5 cells of each plate were seeded on 60 mm plates in triplicates in the presence of a selective agents, 6-TG (30 µM) as described in[32]. […] 300 cells without the selective agent were seeded in a parallel to evaluate plating efficiency (PE). On day 15, the plates were washed with PBS, cells were fixed with ice cold methanol for 10 min and stained with 0.05% crystal violet in water for 30 min[33]. After washing with water, formed colonies were counted using Schuett Count (Schuett-biotec, Göttingen, Germany). Calculations were done as described in[29]. PE was calculated according to a general Eq. 1. Particular PE at selective conditions was calculated according to Eq. 2. Particular PE at non-selective conditions was calculated according to Eq. 3. Mutation frequency (MF) was calculated according to Eq. 4.1 PE=numberofcoloniesformed/numberofcellsplated 2 PEselective=numberofmutantcoloniesNMC/200,000 3 PEnon-selective=numberofcoloniesformed/300 4 MF=PEselectiveconditions/PEnon-selectiveconditions

[3] = system: androgen receptor; experiment: Androgenic activity, transactivation luciferase assay in MDA-kb2; conditions: MDA-kb2, positive control
Source text: Results were expressed as fold induction (FI), i.e. fold increase compared to vehicle control. According to EPA[28], FI of positive control should be above 4 to meet the performance standard.

[4] = system: HeLa cells; experiment: γH2AX biomarker-based genotoxicity assay, HeLa; assay type: cell-based, human; conditions: PC 30 μM; for Fold, mean (γH2AX over negative control): above 1.5 indicates genotoxicity
Procedure: (§1) Briefly, HeLa and CHO-K1 cells were seeded at a concentration of 1 × 10^5 cells/ml into the 96-well plates. CHO-K1 cells were used for comparison with HPRT test. HeLa cells were recommended by the manufacturer of the kit. After 24 h, cells were rinsed with PBS and cultivation medium (“Cell lines” Section) without ATB, with a reduced content of FBS (5%) was added. 30 µM valinomycin (in DMSO) was used as a positive control Samples were applied in the presence of non-toxic sample concentrations, i.e. 100 µM either with or without S9 mix. […] Cells were photographed using a fluorescence microscope (Olympus IX83); filters: DAPI (500 ms) and Cy3 (500 ms). Bioimage analysis in ImageJ software was performed as described previously.

[5] = system: CHO-K1 cells; assay type: cell-based, Chinese hamster; conditions: lilial 100 µM, PC 30 μM; for Fold, mean (γH2AX over negative control): above 1.5 indicates genotoxicity
Procedure: as §1

[6] = system: RPTEC/TERT1 cells; experiment: Nephrotoxicity, RT-qPCR of kidney damage biomarkers; assay type: cell-based, human; conditions: 100 µM, 48 h, normalized to GAPDH and ACTB
Procedure: RPTEC/TERT1 cells were seeded at a concentration of 2 × 10^5 cells/ml in ProxUp2 medium into 60 mm Petri dishes. After 24 h, the cells were washed with PBS and […] metabolites (100 μM) were applied in fresh ProxUp2 medium. The cells were incubated with samples for 48 h, after which the cells were washed with PBS and dishes were frozen in - 160 °C. The RNA was isolated using RNeasy Plus Mini Kit (Qiagen, Hilden, Germany). The RNA concentration and purity was determined with NanoDrop One (ThermoFisher Scientific) spectrophotometr. The cDNA synthesis was performed from 0.1 μg of total RNA with an iScript Reverse Transcription Supermix (Bio-Rad, Hercules, California, USA). Quantitative real-time PCR (qPCR) was performed using the qPCR Bio-Rad C100 Touch System (Bio-Rad) with a 96-well block. The reaction mixture consisted of 1 μl of specific 20 × PrimePCR Assay (Bio-Rad), 10 μl of 2 × SsoAdvance Universal Supermix (Bio-Rad), 2 μl of cDNA sample, 7 μl of nuclease-free water. The final reaction volume was 20 μl. […] Cycling parameters were: initial denaturation at 95 °C for 2 min, followed by 40 cycles of 95 °C for 5 s and 60 °C for 30 s. Fluorescence values were acquired after each extension phase. Samples were analyzed in triplicate, and samples with a standard deviation of duplicates > 0.2 Ct were re-analyzed. A non-template control containing nuclease-free water instead of cDNA as well as non-RT control containing purified RNA without reverse transcription was used. The real-time PCR study followed the MIQE guidelines. Relative transcript levels of the estimated genes in the cell lines were compared using the software CFX Maestro Software 2.3 (Bio-Rad).

[7] = parameters: method as in PMID 32763837; conditions: children and adolescents in Germany ref 40; cited from earlier work
[8] = system: rats; conditions: rats ref 41; cited from earlier work
[9] = system: MCF-7 human breast cancer cells; conditions: lilial 100 µM, estrogen 10 nM; unaffected control 1.8 doublings ref 8; cited from earlier work
[10] = Table 4, Without S9, lilial 500 µM

Cc1ccc2cc3c(ccc4ccccc43)c3c2c1CC3 [3MC, 3-methylcholanthren]
MF (/106) mutation frequency ([1]; Table 4, With S9, lilial 500 µM): 152 ± 14 /106
MF (/10^6) mutation frequency ([1]; Table 4, Without S9): 25 ± 31 /10^6
NMC (number of mutant colonies) [1, 10]: 3 ± 4
PE (%) plating efficiency [1, 10]: 66 ± 3%
NMC (number of mutant colonies) [2]: 17 ± 2
PE (%) plating efficiency [2]: 55 ± 4%

C[C@]12CCC(=O)C[C@@H]1CC[C@@H]1[C@@H]2CC[C@]2(C)[C@@H](O)CC[C@@H]12 [DHT, dihydrotestosterone, reference compound]
Concentration from which fold induction (FI) significantly increased [3]: ≥ 0.5 nM

CC(C)[C@@H]1NC(=O)[C@H](C)OC(=O)[C@@H](C(C)C)NC(=O)[C@@H](C(C)C)OC(=O)[C@H](C(C)C)NC(=O)[C@H](C)OC(=O)[C@@H](C(C)C)NC(=O)[C@@H](C(C)C)OC(=O)[C@H](C(C)C)NC(=O)[C@H](C)OC(=O)[C@@H](C(C)C)NC(=O)[C@@H](C(C)C)OC1=O [PC, valinomycin]
MoA (mean fluorescence values over area of the nuclei) ([4]; 4h_S9, lilial 100 µM): 0.29**
RA (%), mean (relative area of nuclei) ([4]; 4h_S9, lilial 100 µM): 97.8%
Fold, mean (γH2AX over negative control) ([4]; 4h_S9, lilial 100 µM): 2.94
MoA (mean fluorescence values over area of the nuclei) ([4]; 4 h, without S9, lilial 100 µM): 0.13*
RA (%), mean (relative area of nuclei) ([4]; 4 h, without S9, lilial 100 µM): 95.8%
Fold, mean (γH2AX over negative control) ([4]; 4 h, without S9, lilial 100 µM): 2.63
MoA (mean fluorescence values over area of the nuclei) ([4]; 24 h, lilial 100 µM): 0.55*
RA (%), mean (relative area of nuclei) ([4]; 24 h, lilial 100 µM): 101.5%
Fold, mean (γH2AX over negative control) ([4]; 24 h, lilial 100 µM): 24.03
MoA (mean fluorescence values over area of the nuclei) ([5]; CHO-K1, 4h_S9): 0.99
RA (%), mean (relative area of nuclei) ([5]; CHO-K1, 4h_S9): 90.8%
Fold, mean (γH2AX over negative control) ([5]; CHO-K1, 4h_S9): 1.35
MoA (mean fluorescence values over area of the nuclei) ([5]; CHO-K1, 4 h, without S9): 1.14
RA (%), mean (relative area of nuclei) ([5]; CHO-K1, 4 h, without S9): 75.3%
Fold, mean (γH2AX over negative control) ([5]; CHO-K1, 4 h, without S9): 1.45
MoA (mean fluorescence values over area of the nuclei) ([5]; CHO-K1, 24 h): 5.26
RA (%), mean (relative area of nuclei) ([5]; CHO-K1, 24 h): 48.5%
Fold, mean (γH2AX over negative control) ([5]; CHO-K1, 24 h): 4.43

CN(C)[C@@H]1C(O)=C(C(N)=O)C(=O)[C@@]2(O)C(O)=C3C(=O)c4c(O)cccc4[C@@](C)(O)[C@H]3C[C@@H]12 [Tetracycline]
Relative fold gene expression, CLU [6]: 4.09*
Relative fold gene expression, CST3 [6]: 1.64*
Relative fold gene expression, HMOX [6]: 4.93**
Relative fold gene expression, IL6 [6]: 1.70
Relative fold gene expression, IL8 [6]: 1.19
Relative fold gene expression, IPO8 [6]: 1.41**
Relative fold gene expression, TIMP1 [6]: 1.31

CC(Cc1ccc(C(C)(C)CO)cc1)C(=O)O (stereo not shown) [hydroxy-lysmerylic acid]
Geometric mean concentration in urine [7]: < 0.4 µg/L

CC(Cc1ccc(C(C)(C)C)cc1)C(=O)O (stereo not shown) [lysmerylic acid]
Geometric mean concentration in urine [7]: < 0.2 µg/L

CC(C)(C)c1ccc(C(=O)O)cc1 [p-tert-butylbenzoic acid]
Geometric mean concentration in urine [7]: 10.21 µg/L
Effects on male reproduction [8]: adverse effects on male reproduction

estrogen [reference compound]
Cell doublings [9]: 5.2 doublings
